What was measured:
COX-2 [1] = target: T1, COX-2 (Homo sapiens, UniProt P35354); parameters: purchased Cayman Chemical; method as in ref 15 (Zhang et.al 2006); settings: ref 15 (Zhang et.al 2006); cited from earlier work
T1 sequence (P35354 18-604): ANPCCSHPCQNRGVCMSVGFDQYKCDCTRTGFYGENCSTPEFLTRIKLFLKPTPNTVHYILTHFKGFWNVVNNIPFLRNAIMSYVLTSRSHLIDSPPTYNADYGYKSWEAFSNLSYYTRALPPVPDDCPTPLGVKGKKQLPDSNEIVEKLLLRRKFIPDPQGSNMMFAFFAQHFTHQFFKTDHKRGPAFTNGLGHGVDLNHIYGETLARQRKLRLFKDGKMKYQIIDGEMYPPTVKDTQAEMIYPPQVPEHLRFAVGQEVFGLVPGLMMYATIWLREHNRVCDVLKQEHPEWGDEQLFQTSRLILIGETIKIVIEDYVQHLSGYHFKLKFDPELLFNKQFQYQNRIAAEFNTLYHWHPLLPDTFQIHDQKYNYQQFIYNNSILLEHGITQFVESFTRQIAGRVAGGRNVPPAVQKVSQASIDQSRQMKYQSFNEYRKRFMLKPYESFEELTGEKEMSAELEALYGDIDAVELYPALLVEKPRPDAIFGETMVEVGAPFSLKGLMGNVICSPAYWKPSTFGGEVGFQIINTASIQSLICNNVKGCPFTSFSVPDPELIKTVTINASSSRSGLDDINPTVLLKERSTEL

NO = NO inhibition, ELISA kit; type: biochemical; settings: mean ± SD, average of three determinations
Protocol: (§1) The 50% inhibitory concentration (IC50) values were calculated from the concentration-inhibition response curve.
(§2) Cyclooxygenases (COX-1 and COX-2) were measured by an enzyme immunoassay (EIA) kit (Cayman Chemical, Ann Arbor, MI, USA) according to the manufacturer’s instructions. TNF-R2, NF-KB, and NO were measured by ELISA kit (#79756, BPS Bioscience, USA), (#CSB-EL015761HU, Cusabio, China).

NF-KB = NF-KB inhibition, ELISA kit; type: biochemical; settings: for NF- KB IC50 ± SD: mean ± SD, average of three determinations
Protocol: as §1, §2

COX-1 = COX-1 (Ovis aries, UniProt P05979); parameters: method as in ref 15 (Zhang et al.); settings: ref 15 (Zhang et al.); cited from earlier work
TNF-R2 = target: T2, TNF-R2 (Homo sapiens, UniProt P20333); test: TNF-R2 binding activity, ELISA kit; settings: mean ± SD, average of three determinations
T2 construct: purchased BPS Bioscience 79756
T2 sequence (P20333 23-257 limits assumed): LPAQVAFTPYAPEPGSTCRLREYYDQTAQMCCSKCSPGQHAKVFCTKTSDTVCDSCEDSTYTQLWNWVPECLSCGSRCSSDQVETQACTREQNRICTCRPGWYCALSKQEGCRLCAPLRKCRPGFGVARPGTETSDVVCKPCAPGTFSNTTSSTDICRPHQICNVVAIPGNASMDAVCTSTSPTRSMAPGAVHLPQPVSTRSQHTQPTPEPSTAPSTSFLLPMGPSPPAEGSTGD

COX-2 [2] = target: T1, COX-2; test: COX-2 inhibition, enzyme immunoassay (EIA) kit
Protocol: All enzyme inhibition activities were performed in triplicate and were examined using the sample t-test using the SPSS 26.0 program at (p < 0.05) (Table 1).

Sequence of COX-1 (P05979 25-600): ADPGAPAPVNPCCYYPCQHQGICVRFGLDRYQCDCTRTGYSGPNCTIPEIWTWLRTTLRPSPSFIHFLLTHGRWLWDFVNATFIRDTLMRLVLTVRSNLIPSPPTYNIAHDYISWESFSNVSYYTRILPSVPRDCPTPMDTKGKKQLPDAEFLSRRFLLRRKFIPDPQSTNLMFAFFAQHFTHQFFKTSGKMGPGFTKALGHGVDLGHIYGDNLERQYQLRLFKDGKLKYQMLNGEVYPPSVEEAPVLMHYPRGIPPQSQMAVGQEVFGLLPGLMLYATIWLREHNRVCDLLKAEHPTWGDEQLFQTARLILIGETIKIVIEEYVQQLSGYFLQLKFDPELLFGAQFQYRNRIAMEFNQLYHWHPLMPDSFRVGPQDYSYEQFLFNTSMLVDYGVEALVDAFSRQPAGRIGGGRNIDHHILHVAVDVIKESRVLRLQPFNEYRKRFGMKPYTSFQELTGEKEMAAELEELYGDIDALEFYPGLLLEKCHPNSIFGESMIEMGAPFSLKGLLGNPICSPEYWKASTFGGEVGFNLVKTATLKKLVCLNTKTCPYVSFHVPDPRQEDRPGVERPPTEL

NO IC50 ± SD (NO) [µg/mL]	NF- KB IC50 ± SD (NF-KB) [ng/mL]	IC50 (TNF-R2) [µM]	COX-2 inhibitory activity (in words) (COX-2 [2])	IC50 (COX-2 [2]) [µM]	SMILES	Inhibitory activity against COX-2 (in words) (COX-2 [1])	Suppression of NF-KB (in words) (NF-KB)	Inhibitory effects on COX-1 (in words) (COX-1)
76.40 ± 1.74	0.00933 ± 3e-05	0.0276	moderate inhibitory activity	8.44	COc1cc(O)c2c(c1)O[C@H](c1ccc(O)cc1)[C@@H](O)C2=O [Compound C4, 7-O-methyl aromadendrin]	no inhibitory activity	significantly moderate suppression	moderate inhibitory effects
49.20 ± 0.80					O=[N+]([O-])c1cccc2cn[nH]c12 [7-nitroindazole, 7-nitroindazole, reference compound]			
82.00 ± 1.06	0.01007 ± 9e-05	0.031	moderate inhibitory activity	11.3	COc1cc(O)c2c(c1)O[C@H](c1ccc(O)cc1)CC2=O [Compound C1, (2S)-5,4'-dihydroxy-7-methoxyflavanone]	no inhibitory activity	significantly moderate suppression	moderate inhibitory effects
	0.0078 ± 3e-05				COc1cc(/C=C/C(=O)CC(=O)/C=C/c2ccc(O)c(OC)c2)ccc1O [Curcumin, reference compound]			
38.00 ± 0.04	0.00607 ± 7e-05	0.0117		2.63	O=C(C=Cc1ccccc1)OCC1OC(OC(=O)C=Cc2ccccc2)C(O)C(O)C1O [Compound C5, 1,6-dicinnamoyl-O-α-D-glucopyranoside]			
66.00 ± 0.69	0.00877 ± 7e-05	0.0515		34.6	O=C(O)/C=C/c1ccccc1 [Compound C2, (E)-cinnamic acid]		significantly moderate suppression	

Reference: paper PMC9902548, “In silico and in vitro anti-inflammatory study of phenolic compounds isolated from Eucalyptus maculata resin” (Scientific Reports, 2023)
